{"source": "paper PMC4658428", "about": "(Frontiers in Microbiology, 2015)", "key": {"[1]": {"system": "LdtR WT (Liberibacter asiaticus)", "test": "EMSA"}, "ST1710": {"target": "ST1710", "conditions": "read-out: affinity value; cited from earlier work"}, "B. subtilis cells": {"system": "B. subtilis cells", "format": "cell-based, Bacillus subtilis"}, "[2]": {"system": "WT LdtR, lacZ reporter in B. subtilis strain BS6", "format": "cell-based, Bacillus subtilis"}, "[3]": {"system": "S. meliloti strain SMP2A (ΔldtRSMc-pBBR1MCS-5)", "format": "cell-based"}, "LdtR": {"system": "LdtR", "conditions": "cited from earlier work"}, "WT LdtR [4]": {"system": "WT LdtR", "format": "binding, Liberibacter asiaticus"}, "LdtR Wild type": {"target": "LdtR Wild type (Candidatus Liberibacter asiaticus, UniProt A0ABN4AZS1)"}, "WT LdtR [5]": {"system": "WT LdtR", "format": "biochemical, Liberibacter asiaticus"}, "[6]": {"system": "S. meliloti strain SMP5 (1021-pBBR1MCS-5)", "format": "cell-based, Sinorhizobium meliloti"}, "[7]": {"system": "S. meliloti strain SMP2B (ΔldtRSMc-pBBR1MCS-5::LdtR)", "format": "cell-based"}, "[8]": {"target": "LdtR wild type (Liberibacter asiaticus)", "test": "SEC"}}, "data": [{"compound": "PldtP", "values": [{"measurement": "K half", "setting": "[1]", "result": 200, "unit": "nM"}]}, {"compound": "CC[n+]1c(-c2ccccc2)c2cc(N)ccc2c2ccc(N)cc21", "note": "[ethidium]", "values": [{"measurement": "Kd", "setting": "ST1710", "result": 13.7, "unit": "µM"}]}, {"compound": "CCc1oc2ccccc2c1C(=O)c1cc(Br)c(O)c(Br)c1", "note": "[benzbromarone]", "values": [{"measurement": "concentrations found to be toxic to the cells", "setting": "B. subtilis cells", "result": "higher than 5 μM"}, {"measurement": "reduction of β-galactosidase activity", "setting": "[2]", "result": 40, "unit": "%"}, {"measurement": "Growth rate constant, k", "setting": "[3]", "result": "0.042 ± 0.002", "unit": "generations/h"}, {"measurement": "Mean generation time", "setting": "[3]", "result": 23.8, "unit": "h"}, {"measurement": "effect on LdtR binding to DNA", "setting": "LdtR", "result": "inhibitors of LdtR binding to DNA"}, {"measurement": "change in melting temperature (ΔTm)", "setting": "WT LdtR [4]", "result": "-1.8 ± 0.2", "unit": "°C"}, {"measurement": "decrease of melting temperature", "setting": "WT LdtR [4]", "result": "3.6 ± 0.2", "unit": "°C"}, {"measurement": "N", "setting": "LdtR Wild type", "result": "0.34 ± 0.08"}, {"measurement": "ΔG", "setting": "LdtR Wild type", "result": -7.5, "unit": "kcal/mol"}, {"measurement": "ΔH", "setting": "LdtR Wild type", "result": "-3.0 ± 1.0", "unit": "kcal/mol"}, {"measurement": "ΔS", "setting": "LdtR Wild type", "result": 14.9, "unit": "cal/mol/deg"}, {"measurement": "excess of benzbromarone at which the LdtR:DNA complex is disrupted", "setting": "WT LdtR [5]", "result": 10, "unit": "fold excess"}, {"measurement": "Growth rate constant, k", "setting": "[6]", "result": "0.044 ± 0.003", "unit": "generations/h"}, {"measurement": "Mean generation time", "setting": "[6]", "result": 22.7, "unit": "h"}, {"measurement": "increase of the duplication time on addition of benzbromarone", "setting": "[6]", "result": 39, "unit": "%"}, {"measurement": "Growth rate constant, k", "setting": "[7]", "result": "0.045 ± 0.002", "unit": "generations/h"}, {"measurement": "Mean generation time", "setting": "[7]", "result": 22.2, "unit": "h"}, {"measurement": "increase of the duplication time on addition of benzbromarone", "setting": "[7]", "result": 25, "unit": "%"}]}, {"compound": "CC[C@H](c1ccc(O)cc1)[C@@H](CC)c1ccc(O)cc1", "note": "[hexestrol]", "values": [{"measurement": "effect on LdtR binding to DNA", "setting": "LdtR", "result": "inhibitors of LdtR binding to DNA"}]}, {"compound": "LdtR wild type (natural protein)", "values": [{"measurement": "stoichiometry N", "setting": "[8]", "result": 2}]}, {"compound": "O=C(CCc1ccc(O)cc1)c1c(O)cc(O)cc1O", "note": "[phloretin]", "values": [{"measurement": "effect on LdtR binding to DNA", "setting": "LdtR", "result": "inhibitors of LdtR binding to DNA"}]}]}
